Reference: patent US20240024488A1, “COMPOUNDS AND USES THEREOF” (Foghorn Therapeutics Inc., priority 2020, published 2024)

Key:
HiBit-BRM fusion protein = target: T1, HiBit-BRM fusion protein (Homo sapiens, UniProt P51531); experiment: HiBiT-BRM cell-based degradation assay (Nano-Glo HiBiT Lytic Detection, 24 h); settings: HeLa cell line expressing HiBiT-BRM
T1 construct: expressed in transfected cells
How it was run: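 HeLa cells stably expressing HiBiT-BRM were dosed with compounds (10-point 3-fold dilutions, 30 μM final top dose, duplicate) for 24 h. HiBiT signal was read by lytic LgBiT complementation luminescence. Percent degradation was normalised to DMSO (high control) and 2 μM of a reference BRM/BRG1 degrader (low control).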

[1] = target: T2, HiBit-BRG1 fusion protein (Homo sapiens, UniProt P51532); experiment: HiBiT-BRG1 cell-based degradation assay (Nano-Glo HiBiT Lytic Detection, 24 h); settings: HeLa cell line expressing HiBit-BRG1 and LgBit, read-out: BRG1 HiBit Degradation Maximum (%)
T2 construct: expressed in transfected cells
How it was run: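 Percent degradation derived from lytic HiBiT signal, normalized to DMSO-treated cells and to cells given 2 μM of a known BRM/BRG1 degrader. The HeLa line stably expressed HiBit-BRG1 and LgBit; treatment lasted 24 h at 5000 cells per well.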

T1 sequence (P51531 whole entry, the tested form may be a part): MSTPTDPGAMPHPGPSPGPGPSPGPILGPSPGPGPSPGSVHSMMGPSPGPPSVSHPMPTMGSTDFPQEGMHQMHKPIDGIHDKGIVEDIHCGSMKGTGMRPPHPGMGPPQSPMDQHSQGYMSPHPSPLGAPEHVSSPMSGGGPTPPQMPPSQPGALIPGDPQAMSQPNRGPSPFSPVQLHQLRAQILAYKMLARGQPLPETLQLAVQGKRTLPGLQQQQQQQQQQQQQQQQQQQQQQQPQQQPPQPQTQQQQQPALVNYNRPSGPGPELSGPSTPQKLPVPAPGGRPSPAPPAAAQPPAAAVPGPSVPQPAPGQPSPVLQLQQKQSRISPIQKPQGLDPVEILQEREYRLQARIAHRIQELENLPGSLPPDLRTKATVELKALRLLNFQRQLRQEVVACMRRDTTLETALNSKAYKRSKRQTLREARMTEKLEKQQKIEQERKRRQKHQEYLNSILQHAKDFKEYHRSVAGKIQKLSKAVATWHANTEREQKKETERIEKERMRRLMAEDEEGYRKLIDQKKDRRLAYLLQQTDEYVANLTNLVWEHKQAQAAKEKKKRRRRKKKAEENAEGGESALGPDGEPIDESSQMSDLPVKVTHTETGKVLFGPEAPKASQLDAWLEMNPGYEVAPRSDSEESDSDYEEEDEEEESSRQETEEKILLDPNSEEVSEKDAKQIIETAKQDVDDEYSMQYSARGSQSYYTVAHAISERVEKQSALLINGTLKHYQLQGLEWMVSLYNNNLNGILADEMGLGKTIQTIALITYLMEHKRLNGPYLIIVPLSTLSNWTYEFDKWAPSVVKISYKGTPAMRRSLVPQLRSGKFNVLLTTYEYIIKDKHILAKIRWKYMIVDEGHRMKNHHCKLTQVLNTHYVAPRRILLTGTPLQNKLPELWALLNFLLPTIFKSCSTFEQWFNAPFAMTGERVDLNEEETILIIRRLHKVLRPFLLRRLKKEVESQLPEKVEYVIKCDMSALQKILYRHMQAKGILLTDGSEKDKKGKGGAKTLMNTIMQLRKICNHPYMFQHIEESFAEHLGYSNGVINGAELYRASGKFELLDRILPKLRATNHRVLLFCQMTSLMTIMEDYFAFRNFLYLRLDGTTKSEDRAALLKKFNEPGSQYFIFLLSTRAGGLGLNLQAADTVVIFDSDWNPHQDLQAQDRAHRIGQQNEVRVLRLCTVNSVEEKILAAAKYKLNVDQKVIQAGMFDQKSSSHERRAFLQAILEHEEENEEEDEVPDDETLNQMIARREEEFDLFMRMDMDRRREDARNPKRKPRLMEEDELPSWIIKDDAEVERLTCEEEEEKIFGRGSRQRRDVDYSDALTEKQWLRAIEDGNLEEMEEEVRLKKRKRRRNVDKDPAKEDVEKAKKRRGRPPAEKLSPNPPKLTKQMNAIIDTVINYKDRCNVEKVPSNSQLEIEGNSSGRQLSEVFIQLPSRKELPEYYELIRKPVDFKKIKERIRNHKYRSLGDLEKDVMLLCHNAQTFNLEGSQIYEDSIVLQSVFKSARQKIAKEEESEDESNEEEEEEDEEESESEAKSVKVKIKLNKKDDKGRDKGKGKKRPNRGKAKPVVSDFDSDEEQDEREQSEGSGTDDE
T2 sequence (P51532 whole entry, the tested form may be a part): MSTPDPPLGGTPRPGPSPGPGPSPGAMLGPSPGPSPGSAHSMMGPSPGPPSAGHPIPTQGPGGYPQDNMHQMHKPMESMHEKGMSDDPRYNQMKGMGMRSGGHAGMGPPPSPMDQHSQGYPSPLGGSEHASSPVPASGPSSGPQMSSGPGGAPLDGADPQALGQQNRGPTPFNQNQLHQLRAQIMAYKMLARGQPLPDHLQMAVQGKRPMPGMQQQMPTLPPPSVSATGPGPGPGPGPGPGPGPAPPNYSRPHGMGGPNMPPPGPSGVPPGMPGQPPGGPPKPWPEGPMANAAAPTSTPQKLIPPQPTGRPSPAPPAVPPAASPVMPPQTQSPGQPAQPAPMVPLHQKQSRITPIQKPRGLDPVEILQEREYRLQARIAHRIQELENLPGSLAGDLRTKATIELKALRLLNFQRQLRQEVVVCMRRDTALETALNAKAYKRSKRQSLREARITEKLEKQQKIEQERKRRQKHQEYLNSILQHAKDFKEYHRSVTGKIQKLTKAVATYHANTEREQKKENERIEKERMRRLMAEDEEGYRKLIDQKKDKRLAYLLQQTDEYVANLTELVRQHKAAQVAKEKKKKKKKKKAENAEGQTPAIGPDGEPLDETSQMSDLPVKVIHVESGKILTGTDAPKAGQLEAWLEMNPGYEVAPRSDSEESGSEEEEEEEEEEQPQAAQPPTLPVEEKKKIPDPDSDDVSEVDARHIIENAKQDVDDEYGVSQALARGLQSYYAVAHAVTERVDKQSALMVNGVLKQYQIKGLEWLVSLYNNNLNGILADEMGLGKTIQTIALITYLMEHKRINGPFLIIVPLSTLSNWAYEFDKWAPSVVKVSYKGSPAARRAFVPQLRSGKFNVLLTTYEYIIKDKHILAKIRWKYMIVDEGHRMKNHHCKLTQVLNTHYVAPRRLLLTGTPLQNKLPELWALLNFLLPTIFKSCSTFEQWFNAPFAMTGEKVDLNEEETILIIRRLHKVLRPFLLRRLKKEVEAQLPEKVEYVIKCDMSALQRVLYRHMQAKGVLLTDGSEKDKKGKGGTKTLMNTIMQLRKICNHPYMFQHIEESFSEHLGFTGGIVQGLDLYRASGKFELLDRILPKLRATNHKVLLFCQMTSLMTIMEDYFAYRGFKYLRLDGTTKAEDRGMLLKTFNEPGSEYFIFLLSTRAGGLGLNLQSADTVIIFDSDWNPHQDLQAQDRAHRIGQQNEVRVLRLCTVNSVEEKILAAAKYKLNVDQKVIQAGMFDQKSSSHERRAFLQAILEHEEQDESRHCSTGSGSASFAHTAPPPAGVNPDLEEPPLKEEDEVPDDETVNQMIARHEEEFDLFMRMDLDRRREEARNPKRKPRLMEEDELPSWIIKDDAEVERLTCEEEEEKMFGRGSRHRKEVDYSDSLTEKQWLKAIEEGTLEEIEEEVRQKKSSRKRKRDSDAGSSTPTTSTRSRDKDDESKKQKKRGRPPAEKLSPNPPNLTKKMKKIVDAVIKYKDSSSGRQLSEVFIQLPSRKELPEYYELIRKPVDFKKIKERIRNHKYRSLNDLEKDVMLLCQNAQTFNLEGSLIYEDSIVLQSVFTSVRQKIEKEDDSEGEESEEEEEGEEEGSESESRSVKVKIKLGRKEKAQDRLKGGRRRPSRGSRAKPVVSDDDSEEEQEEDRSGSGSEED

Row | Compound | Dmax [1] [%] | BRM HiBit Degradation Maximum (%) (HiBit-BRM fusion protein)
1 | O=C1CCC(N2C(=O)c3cccc(OCCCCCCC(=O)N4CC(c5cc6cc(-c7ccccc7O)nnc6[nH]5)C4)c3C2=O)C(=O)N1 (centres unmarked) [Compound 31, 2-(2,6-dioxopiperidin-3-yl)-4-((7-(3-(3-(2-hydroxyphenyl)-7H-pyrrolo[2,3-c]pyridazin-6-yl)azetidin-1-yl)-7-oxoheptyl)oxy)isoindoline-1,3-dione] | < 50 | C (“C” indicates maximum degradation < 50%)
2 | O=C1CCC(N2C(=O)c3ccc(NCCCCCCCCCCC(=O)N4CC(c5cc6cc(-c7ccccc7O)nnc6[nH]5)C4)cc3C2=O)C(=O)N1 (centres unmarked) [Compound 32, 2-(2,6-dioxopiperidin-3-yl)-5-((11-(3-(3-(2-hydroxyphenyl)-7H-pyrrolo[2,3-c]pyridazin-6-yl)azetidin-1-yl)-11-oxoundecyl)amino)isoindoline-1,3-dione] | < 50 | C (“C” indicates maximum degradation < 50%)
3 | O=C1CCC(N2C(=O)c3cccc(NCCCCCCCCC(=O)N4CC(c5cc6cc(-c7ccccc7O)nnc6[nH]5)C4)c3C2=O)C(=O)N1 (centres unmarked) [Compound 33, 2-(2,6-dioxopiperidin-3-yl)-4-((9-(3-(3-(2-hydroxyphenyl)-7H-pyrrolo[2,3-c]pyridazin-6-yl)azetidin-1-yl)-9-oxononyl)amino)isoindoline-1,3-dione] | < 50 | C (“C” indicates maximum degradation < 50%)
4 | O=C1CCC(N2C(=O)c3ccc(N4CC5(CN(CCC(=O)N6CC(c7cc8cc(-c9ccccc9O)nnc8[nH]7)C6)C5)C4)cc3C2=O)C(=O)N1 (centres unmarked) [Compound 34, 2-(2,6-dioxopiperidin-3-yl)-5-(6-(3-(3-(3-(2-hydroxyphenyl)-7H-pyrrolo[2,3-c]pyridazin-6-yl)azetidin-1-yl)-3-oxopropyl)-2,6-diazaspiro[3.3]heptan-2-yl)isoindoline-1,3-dione] | < 50 | C (“C” indicates maximum degradation < 50%)
5 | Cc1ncsc1-c1ccc(CNC(=O)[C@@H]2C[C@@H](O)CN2C(=O)[C@@H](NC(=O)CCN2CC(c3c[nH]c4nnc(-c5ccccc5O)cc34)C2)C(C)(C)C)cc1 [Compound 35, (2S,4R)-4-hydroxy-1-((S)-2-(3-(3-(3-(2-hydroxyphenyl)-7H-pyrrolo[2,3-c]pyridazin-5-yl)azetidin-1-yl)propanamido)-3,3-dimethylbutanoyl)-N-(4-(4-methylthiazol-5-yl)benzyl)pyrrolidine-2-carboxamide] | < 50 | C (“C” indicates maximum degradation < 50%)
6 | Cc1ncsc1-c1ccc(CNC(=O)[C@@H]2C[C@@H](O)CN2C(=O)[C@@H](NC(=O)CCCCCCCC(=O)N2CC(c3c[nH]c4nnc(-c5ccccc5O)cc34)C2)C(C)(C)C)cc1 [Compound 36, (2S,4R)-4-hydroxy-1-((S)-2-(9-(3-(3-(2-hydroxyphenyl)-7H-pyrrolo[2,3-c]pyridazin-5-yl)azetidin-1-yl)-9-oxononanamido)-3,3-dimethylbutanoyl)-N-(4-(4-methylthiazol-5-yl)benzyl)pyrrolidine-2-carboxamide] | < 50 | C (“C” indicates maximum degradation < 50%)
7 | Cc1ncsc1-c1ccc(CNC(=O)[C@@H]2C[C@@H](O)CN2C(=O)[C@@H](NC(=O)CCCC(=O)N2CC(c3c[nH]c4nnc(-c5ccccc5O)cc34)C2)C(C)(C)C)cc1 [Compound 40, (2S,4R)-4-hydroxy-1-((S)-2-(5-(3-(3-(2-hydroxyphenyl)-7H-pyrrolo[2,3-c]pyridazin-5-yl)azetidin-1-yl)-5-oxopentanamido)-3,3-dimethylbutanoyl)-N-(4-(4-methylthiazol-5-yl)benzyl)pyrrolidine-2-carboxamide] | < 50 | C (“C” indicates maximum degradation < 50%)
8 | Cc1ncsc1-c1ccc(CNC(=O)[C@@H]2C[C@@H](O)CN2C(=O)[C@@H](NC(=O)CCCCCCC(=O)N2CC(c3c[nH]c4nnc(-c5ccccc5O)cc34)C2)C(C)(C)C)cc1 [Compound 45, (2S,4R)-4-hydroxy-1-((S)-2-(8-(3-(3-(2-hydroxyphenyl)-7H-pyrrolo[2,3-c]pyridazin-5-yl)azetidin-1-yl)-8-oxooctanamido)-3,3-dimethylbutanoyl)-N-(4-(4-methylthiazol-5-yl)benzyl)pyrrolidine-2-carboxamide] | < 50 | C (“C” indicates maximum degradation < 50%)

Second part, led by results:

Row | Dmax [1] [%] | Compound | BRM HiBit Degradation Maximum (%) (HiBit-BRM fusion protein)
9 | < 50 | Cc1ncsc1-c1ccc(CNC(=O)[C@@H]2C[C@@H](O)CN2C(=O)[C@@H](NC(=O)CCCCCCCCCC(=O)N2CC(c3c[nH]c4nnc(-c5ccccc5O)cc34)C2)C(C)(C)C)cc1 [Compound 37, (2S,4R)-4-hydroxy-1-((S)-2-(11-(3-(3-(2-hydroxyphenyl)-7H-pyrrolo[2,3-c]pyridazin-5-yl)azetidin-1-yl)-11-oxoundecanamido)-3,3-dimethylbutanoyl)-N-(4-(4-methylthiazol-5-yl)benzyl)pyrrolidine-2-carboxamide] | C (“C” indicates maximum degradation < 50%)
10 | < 50 | Cc1ncsc1-c1ccc(CNC(=O)[C@@H]2C[C@@H](O)CN2C(=O)[C@@H](NC(=O)CCCCCCCCCCCCCCCCC(=O)N2CC(c3c[nH]c4nnc(-c5ccccc5O)cc34)C2)C(C)(C)C)cc1 [Compound 38, (2S,4R)-4-hydroxy-1-((S)-2-(18-(3-(3-(2-hydroxyphenyl)-7H-pyrrolo[2,3-c]pyridazin-5-yl)azetidin-1-yl)-18-oxooctadecanamido)-3,3-dimethylbutanoyl)-N-(4-(4-methylthiazol-5-yl)benzyl)pyrrolidine-2-carboxamide] | C (“C” indicates maximum degradation < 50%)
11 | < 50 | Cc1ncsc1-c1ccc(CNC(=O)[C@@H]2C[C@@H](O)CN2C(=O)[C@@H](NC(=O)CCCCCCCCCCCCCC(=O)N2CC(c3c[nH]c4nnc(-c5ccccc5O)cc34)C2)C(C)(C)C)cc1 [Compound 39, (2S,4R)-4-hydroxy-1-((S)-2-(15-(3-(3-(2-hydroxyphenyl)-7H-pyrrolo[2,3-c]pyridazin-5-yl)azetidin-1-yl)-15-oxopentadecanamido)-3,3-dimethylbutanoyl)-N-(4-(4-methylthiazol-5-yl)benzyl)pyrrolidine-2-carboxamide] | C (“C” indicates maximum degradation < 50%)
12 | < 50 | Cc1ncsc1-c1ccc(CNC(=O)[C@@H]2C[C@@H](O)CN2C(=O)[C@@H](NC(=O)CCCCCCCCCCCCCCC(=O)N2CC(c3c[nH]c4nnc(-c5ccccc5O)cc34)C2)C(C)(C)C)cc1 [Compound 41, (2S,4R)-4-hydroxy-1-((S)-2-(16-(3-(3-(2-hydroxyphenyl)-7H-pyrrolo[2,3-c]pyridazin-5-yl)azetidin-1-yl)-16-oxohexadecanamido)-3,3-dimethylbutanoyl)-N-(4-(4-methylthiazol-5-yl)benzyl)pyrrolidine-2-carboxamide] | C (“C” indicates maximum degradation < 50%)
13 | < 50 | Cc1ncsc1-c1ccc(CNC(=O)[C@@H]2C[C@@H](O)CN2C(=O)[C@@H](NC(=O)CCCCCCCCCCCCCCCC(=O)N2CC(c3c[nH]c4nnc(-c5ccccc5O)cc34)C2)C(C)(C)C)cc1 [Compound 42, (2S,4R)-4-hydroxy-1-((S)-2-(17-(3-(3-(2-hydroxyphenyl)-7H-pyrrolo[2,3-c]pyridazin-5-yl)azetidin-1-yl)-17-oxoheptadecanamido)-3,3-dimethylbutanoyl)-N-(4-(4-methylthiazol-5-yl)benzyl)pyrrolidine-2-carboxamide] | C (“C” indicates maximum degradation < 50%)
14 | < 50 | Cc1ncsc1-c1ccc(CNC(=O)[C@@H]2C[C@@H](O)CN2C(=O)[C@@H](NC(=O)CCCCCCCCC(=O)N2CC(c3c[nH]c4nnc(-c5ccccc5O)cc34)C2)C(C)(C)C)cc1 [Compound 43, (2S,4R)-4-hydroxy-1-((S)-2-(10-(3-(3-(2-hydroxyphenyl)-7H-pyrrolo[2,3-c]pyridazin-5-yl)azetidin-1-yl)-10-oxodecanamido)-3,3-dimethylbutanoyl)-N-(4-(4-methylthiazol-5-yl)benzyl)pyrrolidine-2-carboxamide] | C (“C” indicates maximum degradation < 50%)
15 | < 50 | Cc1ncsc1-c1ccc(CNC(=O)[C@@H]2C[C@@H](O)CN2C(=O)[C@@H](NC(=O)CCCCCCCCCCCCC(=O)N2CC(c3c[nH]c4nnc(-c5ccccc5O)cc34)C2)C(C)(C)C)cc1 [Compound 44, (2S,4R)-4-hydroxy-1-((S)-2-(14-(3-(3-(2-hydroxyphenyl)-7H-pyrrolo[2,3-c]pyridazin-5-yl)azetidin-1-yl)-14-oxotetradecanamido)-3,3-dimethylbutanoyl)-N-(4-(4-methylthiazol-5-yl)benzyl)pyrrolidine-2-carboxamide] | C (“C” indicates maximum degradation < 50%)
16 | < 50 | Cc1ncsc1-c1ccc(CNC(=O)[C@@H]2C[C@@H](O)CN2C(=O)[C@@H](NC(=O)CCCCCCCCCCC(=O)N2CC(c3c[nH]c4nnc(-c5ccccc5O)cc34)C2)C(C)(C)C)cc1 [Compound 46, (2S,4R)-4-hydroxy-1-((S)-2-(12-(3-(3-(2-hydroxyphenyl)-7H-pyrrolo[2,3-c]pyridazin-5-yl)azetidin-1-yl)-12-oxododecanamido)-3,3-dimethylbutanoyl)-N-(4-(4-methylthiazol-5-yl)benzyl)pyrrolidine-2-carboxamide] | C (“C” indicates maximum degradation < 50%)
